Where a name gives a salt, the structure may show the parent alone. Read-outs that look alike come from different tables or passages of the source.
Columns and labels:
[1] = tested on: Phosphorylated Ribosomal Protein S6 (RPS6) in THP-1 cells; experiment: THP-1 RPS6 ELISA Assay; type: cell-based, Human; details: MCP-1 stimulated, phospho-RPS6 ELISA, read-out: THP p-RPS6 ELISA IC50
Summary of the method: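 Phospho-RPS6 in lysates measured by ELISA at 450 nm, corrected at 540 nm, after MCP-1 challenge (10 nM, 15 min) of THP-1 cells that were starved overnight and exposed to test compound for 2 h at 37° C, 2×10^5 cells/well. Curve fit of percent inhibition gives IC50.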

[2] = biological target: PI3Kγ (p110γ) Recombinant Human Protein (Homo sapiens (Human), UniProt P48736); experiment: PI3K-γ Scintillation Proximity Assay; type: biochemical; details: read-out: PI3K-gamma SPA IC50
Sequence of PI3Kγ (p110γ) Recombinant Human Protein (P48736 whole entry): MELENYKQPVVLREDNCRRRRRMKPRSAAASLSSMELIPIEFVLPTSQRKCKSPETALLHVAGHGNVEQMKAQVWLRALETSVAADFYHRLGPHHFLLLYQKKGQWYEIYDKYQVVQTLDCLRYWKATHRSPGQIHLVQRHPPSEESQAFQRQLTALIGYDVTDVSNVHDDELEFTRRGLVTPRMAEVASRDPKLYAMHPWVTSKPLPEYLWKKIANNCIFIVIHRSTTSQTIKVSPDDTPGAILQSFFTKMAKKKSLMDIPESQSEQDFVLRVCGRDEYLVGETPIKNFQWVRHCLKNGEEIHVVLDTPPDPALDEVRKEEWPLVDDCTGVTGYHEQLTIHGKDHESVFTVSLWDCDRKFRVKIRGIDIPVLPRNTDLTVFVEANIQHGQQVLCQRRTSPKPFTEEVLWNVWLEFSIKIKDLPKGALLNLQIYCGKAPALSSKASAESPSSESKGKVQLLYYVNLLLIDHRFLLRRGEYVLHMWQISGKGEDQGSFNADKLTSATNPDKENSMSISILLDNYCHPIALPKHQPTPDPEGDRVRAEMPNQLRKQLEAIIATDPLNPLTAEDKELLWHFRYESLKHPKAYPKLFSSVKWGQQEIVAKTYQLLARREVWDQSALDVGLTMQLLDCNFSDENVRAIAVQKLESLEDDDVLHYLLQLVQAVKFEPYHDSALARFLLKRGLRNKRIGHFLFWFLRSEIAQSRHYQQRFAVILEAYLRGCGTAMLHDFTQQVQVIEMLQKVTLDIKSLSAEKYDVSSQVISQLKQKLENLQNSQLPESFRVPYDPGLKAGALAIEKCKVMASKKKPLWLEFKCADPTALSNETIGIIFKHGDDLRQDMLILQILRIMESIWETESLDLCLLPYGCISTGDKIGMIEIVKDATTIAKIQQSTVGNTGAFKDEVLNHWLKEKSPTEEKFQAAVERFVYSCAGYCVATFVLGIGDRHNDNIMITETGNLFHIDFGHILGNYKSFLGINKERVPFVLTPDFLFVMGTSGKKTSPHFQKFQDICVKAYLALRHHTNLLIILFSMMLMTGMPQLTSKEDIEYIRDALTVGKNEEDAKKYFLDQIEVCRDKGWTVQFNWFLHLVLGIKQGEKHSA
Summary of the method: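 Radiometric SPA: reaction at room temperature for 120 min using 2 μM ATP with [γ-33P]ATP tracer, 20 μM PIP2 substrate and 13 nM human PI3Kγ (MOPS pH 6.7, MgCl2, DTT, CHAPS; 2% DMSO). EDTA quench with WGA beads, scintillation count, and IC50 fit of percent-of-control activity.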

[3] = biological target: PI3Kδ (p110δ/p85α) Recombinant Human Protein (Homo sapiens (Human), UniProt O00329); experiment: PI3Kδ Scintillation Proximity Assay; type: biochemical; details: read-out: PI3K-delta SPA IC50
Sequence of PI3Kδ (p110δ/p85α) Recombinant Human Protein (O00329 whole entry): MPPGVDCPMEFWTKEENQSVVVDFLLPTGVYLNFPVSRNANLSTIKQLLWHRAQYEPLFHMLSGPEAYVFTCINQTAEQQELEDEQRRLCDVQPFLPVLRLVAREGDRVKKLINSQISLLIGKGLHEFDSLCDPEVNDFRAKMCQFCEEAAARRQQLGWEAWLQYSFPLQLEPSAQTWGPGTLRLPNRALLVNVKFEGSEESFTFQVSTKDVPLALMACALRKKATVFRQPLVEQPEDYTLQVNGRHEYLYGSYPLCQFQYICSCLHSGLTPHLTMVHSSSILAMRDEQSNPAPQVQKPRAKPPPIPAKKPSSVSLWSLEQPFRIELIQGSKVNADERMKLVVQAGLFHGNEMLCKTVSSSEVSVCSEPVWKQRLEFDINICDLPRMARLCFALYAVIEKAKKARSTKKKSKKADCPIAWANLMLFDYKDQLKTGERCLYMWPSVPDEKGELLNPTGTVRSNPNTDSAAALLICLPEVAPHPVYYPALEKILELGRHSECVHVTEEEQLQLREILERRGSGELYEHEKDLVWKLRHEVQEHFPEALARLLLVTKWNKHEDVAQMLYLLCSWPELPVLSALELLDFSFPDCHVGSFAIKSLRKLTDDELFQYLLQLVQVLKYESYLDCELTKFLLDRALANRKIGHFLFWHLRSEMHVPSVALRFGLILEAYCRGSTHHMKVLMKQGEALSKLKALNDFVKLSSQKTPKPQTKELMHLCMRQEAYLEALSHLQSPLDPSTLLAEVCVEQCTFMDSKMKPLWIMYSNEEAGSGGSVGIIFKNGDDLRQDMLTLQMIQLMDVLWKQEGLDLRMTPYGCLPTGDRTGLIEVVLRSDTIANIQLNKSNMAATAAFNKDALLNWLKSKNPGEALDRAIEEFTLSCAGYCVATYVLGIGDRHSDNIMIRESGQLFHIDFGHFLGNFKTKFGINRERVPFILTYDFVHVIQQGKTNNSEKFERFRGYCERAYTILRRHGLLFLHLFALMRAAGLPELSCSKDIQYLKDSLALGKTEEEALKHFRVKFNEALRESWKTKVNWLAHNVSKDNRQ
Sequence of PI3Kδ (p110δ/p85α) Recombinant Human Protein (P27986 whole entry partner): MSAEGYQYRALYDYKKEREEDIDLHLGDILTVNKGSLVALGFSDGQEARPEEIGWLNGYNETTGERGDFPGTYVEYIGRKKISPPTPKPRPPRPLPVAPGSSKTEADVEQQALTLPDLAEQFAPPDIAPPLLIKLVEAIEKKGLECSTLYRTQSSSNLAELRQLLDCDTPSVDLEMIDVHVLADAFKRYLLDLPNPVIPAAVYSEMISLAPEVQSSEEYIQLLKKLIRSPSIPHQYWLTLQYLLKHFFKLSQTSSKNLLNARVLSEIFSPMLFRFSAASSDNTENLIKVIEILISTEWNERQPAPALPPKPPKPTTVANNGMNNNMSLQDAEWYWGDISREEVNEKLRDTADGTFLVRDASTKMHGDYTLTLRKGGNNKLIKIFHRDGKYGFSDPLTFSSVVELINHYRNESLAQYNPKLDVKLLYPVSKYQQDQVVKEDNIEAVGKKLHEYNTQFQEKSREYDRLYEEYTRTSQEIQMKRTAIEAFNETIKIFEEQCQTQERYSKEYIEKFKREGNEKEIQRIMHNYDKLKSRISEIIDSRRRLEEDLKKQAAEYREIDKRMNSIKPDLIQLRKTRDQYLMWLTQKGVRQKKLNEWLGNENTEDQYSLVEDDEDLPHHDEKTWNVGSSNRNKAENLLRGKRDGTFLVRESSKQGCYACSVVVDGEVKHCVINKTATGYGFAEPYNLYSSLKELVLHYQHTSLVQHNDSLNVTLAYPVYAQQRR
Summary of the method: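 Assay conditions: 2 μM ATP (radiolabelled), 20 μM PIP2, 3.4 nM PI3Kδ, 20 mM MOPS pH 6.7 with 10 mM MgCl2, 5 mM DTT, 0.03% CHAPS, 2 h at room temperature. Signal from bead-captured 33P product; IC50 versus solvent control.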

| IC50 ([1]; Homo sapiens) [nM] | IC50 [2] [nM] | IC50 [3] [nM] | SMILES | IC50 [1] [nM] |
| --- | --- | --- | --- | --- |
| ≤ 300 | ≤ 50 | ≤ 100 | Cc1nc(-c2cc(-c3cncc(C(=O)N4CCC5(CC4)COC5)c3)ccn2)[nH]c1C [Example 165, (2′-(4,5-Dimethyl-1H-imidazol-2-yl)-3,4′-bipyridin-5-yl)(2-oxa-7-azaspiro[3.5]nonan-7-yl)methanone trifluoroacetate salt] |  |
| 300 to 1000 | ≤ 50 | ≤ 50 | CCc1cnc(-c2cc(-c3cncc(S(C)(=O)=O)c3)ccn2)[nH]1 [Example 110, 2′-(5-Ethyl-1H-imidazol-2-yl)-5-(methylsulfonyl)-3,4′-bipyridine trifluoroacetate salt] |  |
| 1000 to 5000 | ≤ 50 | ≤ 100 | Cc1nc(-c2cc(-c3cncc(C(=O)NC(C)(C)C)c3)ccn2)[nH]c1C [Example 208, N-(tert-Butyl)-2′-(4,5-dimethyl-1H-imidazol-2-yl)-3,4′-bipyridine-5-carboxamide trifluoroacetate salt] |  |
| 300 to 1000 | ≤ 100 | ≤ 50 | c1cc(-c2cncc(N3CCOCC3)c2)cc(-c2ncc(C3CC3)[nH]2)n1 [Example 102, 4-(2′-(5-Cyclopropyl-1H-imidazol-2-yl)-3,4′-bipyridin-5-yl)morpholine trifluoroacetate salt] |  |
| 300 to 1000 | ≤ 50 | ≤ 100 | Cc1nc(-c2cc(-c3cncc(C(=O)N(C)CC#N)c3)ccn2)[nH]c1C [Example 203, N-(Cyanomethyl)-2′-(4,5-dimethyl-1H-imidazol-2-yl)-N-methyl-3,4′-bipyridine-5-carboxamide] |  |
| 300 to 1000 | ≤ 50 | ≤ 100 | Cc1nc(-c2cc(-c3cncc(C(=O)N(C)CC4(CO)CC4)c3)ccn2)[nH]c1C [Example 205, 2′-(4,5-Dimethyl-1H-imidazol-2-yl)-N-{[1-(hydroxymethyl)cyclopropyl]methyl}-N-methyl-3,4′-bipyridine-5-carboxamide trifluoroacetate salt] |  |
| > 5000 | ≤ 50 | ≤ 500 | COc1cncc(-c2ccnc(-c3ncc(C(F)(F)F)[nH]3)c2)c1 [Example 79, 5-Methoxy-2′-(5-(trifluoromethyl)-1H-imidazol-2-yl)-3,4′-bipyridine trifluoroacetate salt] |  |
| > 5000 | ≤ 500 | ≤ 500 | COc1cncc(-c2ccnc(-c3nnc(NC(C)C)[nH]3)c2)c1 [Example 67, N-Isopropyl-5-(5-methoxy-3,4′-bipyridin-2′-yl)-4H-1,2,4-triazol-3-amine trifluoroacetate salt] |  |
| ≤ 300 | ≤ 50 | ≤ 50 | Cc1[nH]c(-c2cc(-c3cncc(N4CCOCC4)c3)ccn2)nc1C(=O)NC1CCSCC1 [Example 281, 5-Methyl-2-(5-morpholin-4-yl-3,4′-bipyridin-2′-yl)-N-(tetrahydro-2H-thiopyran-4-yl)-1H-imidazole-4-carboxamide trifluoroacetate salt] |  |
| > 5000 | ≤ 50 | ≤ 50 | c1ccc(-c2cnc(-c3cc(-c4cncc(NCC5CCOCC5)c4)ccn3)[nH]2)cc1 [Example 141, 2′-(5-Phenyl-1H-imidazol-2-yl)-N-(tetrahydro-2H-pyran-4-ylmethyl)-3,4′-bipyridin-5-amine Trifluoroacetate Salt] |  |
| 300 to 1000 | ≤ 50 | ≤ 100 | COc1cncc(-c2ccnc(-c3nc(C)c(C)[nH]3)c2)c1 [Example 76, 2′-(4,5-Dimethyl-1H-imidazol-2-yl)-5-methoxy-3,4′-bipyridine] |  |
| ≤ 300 | ≤ 50 | ≤ 50 | Cc1nc(-c2cc(-c3cncc(C(=O)N4CC(C#N)C4)c3)ccn2)[nH]c1C [Example 153, 1-(2′-(4,5-Dimethyl-1H-imidazol-2-yl)-3,4′-bipyridine-5-carbonyl)azetidine-3-carbonitrile trifluoroacetate salt] |  |
| 300 to 1000 | ≤ 50 | ≤ 50 | Cc1[nH]c(-c2cc(-c3cncc(N4CCOCC4)c3)ccn2)nc1C(=O)NC1C2CC3CC(C2)CC1C3 (stereo not drawn) [Example 278, N-2-Adamantyl-5-methyl-2-(5-morpholin-4-yl-3,4′-bipyridin-2′-yl)-1H-imidazole-4-carboxamide trifluoroacetate salt] |  |
| 1000 to 5000 | ≤ 100 | ≤ 500 | Cc1n[nH]cc1-c1ccnc(-c2ncc(-c3ccccc3)[nH]2)c1 [Example 9, 4-(3-Methyl-1H-pyrazol-4-yl)-2-(5-phenyl-1H-imidazol-2-yl)pyridine trifluoroacetate salt] |  |
| 1000 to 5000 | ≤ 100 | ≤ 50 | Cc1nc(-c2cc(-c3cncc(C(=O)N4CCC(CCO)C4)c3)ccn2)[nH]c1C (racemic) [Example 169, (2′-(4,5-Dimethyl-1H-imidazol-2-yl)-3,4′-bipyridin-5-yl)(3-(2-hydroxyethyl)pyrrolidin-1-yl)methanone] |  |
| > 5000 | ≤ 50 | > 500 | Cc1nc(-c2cc(-c3cnn(Cc4ccc(Cl)cc4)c3)ccn2)[nH]c1C [Example 294, 4-(1-(4-Chlorobenzyl)-1H-pyrazol-4-yl)-2-(4,5-dimethyl-1H-imidazol-2-yl)pyridine Trifluoroacetate Salt] |  |
| ≤ 300 | ≤ 50 | ≤ 50 | Cc1[nH]c(-c2cc(-c3cncc(N4CCOCC4)c3)ccn2)nc1C(=O)N[C@@H](C)c1ccccc1 [Example 273, 5-Methyl-2-(5-morpholin-4-yl-3,4′-bipyridin-2′-yl)-N-[(1S)-1-phenylethyl]-1H-imidazole-4-carboxamide trifluoroacetate salt] |  |
| ≤ 300 | ≤ 100 | ≤ 100 | CCc1[nH]c(-c2cc(-c3cncc(N4CCOCC4)c3)ccn2)nc1C [Example 105, 4-(2′-(5-Ethyl-4-methyl-1H-imidazol-2-yl)-3,4′-bipyridin-5-yl)morpholine] |  |
| 1000 to 5000 | ≤ 100 | ≤ 500 | COc1cncc(-c2ccnc(-c3ncc(C(C)C)[nH]3)c2)c1 [Example 84, 2′-(5-Isopropyl-1H-imidazol-2-yl)-5-methoxy-3,4′-bipyridine trifluoroacetate salt] |  |
| 1000 to 5000 | ≤ 500 | > 500 | COc1cncc(-c2ccnc(-c3nc4ccccc4[nH]3)n2)c1 [Example 94, 2-[4-(5-Methoxypyridin-3-yl)pyrimidin-2-yl]-1H-benzimidazole Trifluoroacetate Salt] |  |
| ≤ 300 | ≤ 50 | ≤ 50 | CCc1[nH]c(-c2cc(-c3cncc(S(C)(=O)=O)c3)ccn2)nc1C [Example 117, 2′-(5-Ethyl-4-methyl-1H-imidazol-2-yl)-5-(methylsulfonyl)-3,4′-bipyridine] |  |
| > 5000 | ≤ 500 | ≤ 100 | O=C(Nc1cncc(-c2ccnc(-c3ncc(-c4ccccc4)[nH]3)c2)c1)C1CCCC1 [Example 138, N-(2′-(5-Phenyl-1H-imidazol-2-yl)-3,4′-bipyridin-5-yl)cyclopentanecarboxamide] |  |
| 1000 to 5000 | ≤ 100 | ≤ 50 | c1cc(-c2cncc(N3CCOCC3)c2)cc(-c2ncc(C3CCC3)[nH]2)n1 [Example 103, 4-(2′-(5-Cyclobutyl-1H-imidazol-2-yl)-3,4′-bipyridin-5-yl)morpholine trifluoroacetate salt] |  |
| ≤ 300 | ≤ 50 | ≤ 50 | Cc1[nH]c(-c2cc(-c3cncc(N4CCOCC4)c3)ccn2)nc1C(=O)NC1CCCC1 [Example 258, N-Cyclopentyl-5-methyl-2-(5-morpholin-4-yl-3,4′-bipyridin-2′-yl)-1H-imidazole-4-carboxamide] |  |
| 300 to 1000 | ≤ 50 | ≤ 100 | CO[C@H]1CCN(C(=O)c2cncc(-c3ccnc(-c4nc(C)c(C)[nH]4)c3)c2)C1 [Example 212B, 2′-(4,5-Dimethyl-1H-imidazol-2-yl)-5-{[(3S)-3-methoxypyrrolidin-1-yl]carbonyl}-3,4′-bipyridine trifluoroacetate salt] |  |
| 300 to 1000 | ≤ 50 | ≤ 500 | COc1cncc(-c2ccnc(-c3ncc(C4CC4)[nH]3)c2)c1 [Example 86, 2′-(5-Cyclopropyl-1H-imidazol-2-yl)-5-methoxy-3,4′-bipyridine] |  |
| ≤ 300 | ≤ 50 | ≤ 50 | Cc1nc(-c2cc(-c3cncc(NC(C)c4ccccc4)c3)ccn2)[nH]c1C (racemic) [Example 145C, 2′-(4,5-Dimethyl-1H-imidazol-2-yl)-N-(1-phenylethyl)-3,4′-bipyridin-5-amine trifluoroacetate salt] |  |

| SMILES | IC50 ([1]; Homo sapiens) [nM] | IC50 [2] [nM] | IC50 [3] [nM] | IC50 [1] [nM] |
| --- | --- | --- | --- | --- |
| Cc1[nH]c(-c2cc(-c3cncc(S(C)(=O)=O)c3)ccn2)nc1C(=O)N1CCOCC1 [Example 244, 2′-[5-Methyl-4-(morpholin-4-ylcarbony1)-1H-imidazol-2-yl]-5-(methylsulfony1)-3,4′-bipyridine] |  | ≤ 100 | ≤ 50 | > 5000 |
